Reference: PubChem BioAssay AID1963867 (Molecular Pharmacology Branch, DTP, NCI, 2024)

Test system: KRAS-mutant PDC tumor spheroid with HUVEC/MSC, viability
Assay: Anticancer human tumor 327498-153-R-J2-PDC patient-derived uterine carcinosarcoma cell line growth inhibition [KRAS2]
Conditions: for IC50: curve of first compound; for viability, T/C: stronger effect = lower value
In short: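 Combination screen of spheroid viability in tumor-cell co-cultures with endothelial (HUVEC) and mesenchymal stem cell stroma. Each agent was tested in half-log dilutions, topping at clinical Cmax or at 10 microM without a known Cmax.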

[1] = second compound 0.0316 µM, first compound 0.0316 µM
[2] = second compound 0.0316 µM, first compound 0.1 µM
[3] = second compound 0.0316 µM, first compound 0.316 µM
[4] = second compound 0.0316 µM, first compound 1 µM
[5] = second compound 0.0316 µM, first compound 3.16 µM
[6] = second compound 0.0316 µM, first compound 10 µM
[7] = second compound 0.1 µM, first compound 0.0316 µM
[8] = second compound 0.1 µM, first compound 0.1 µM
[9] = second compound 0.1 µM, first compound 0.316 µM
[10] = second compound 0.1 µM, first compound 1 µM
[11] = second compound 0.1 µM, first compound 3.16 µM
[12] = second compound 0.1 µM, first compound 10 µM
[13] = second compound 0.316 µM, first compound 0.0316 µM
[14] = second compound 0.316 µM, first compound 0.1 µM
[15] = second compound 0.316 µM, first compound 0.316 µM
[16] = second compound 0.316 µM, first compound 1 µM
[17] = second compound 0.316 µM, first compound 3.16 µM
[18] = second compound 0.316 µM, first compound 10 µM
[19] = second compound 1 µM, first compound 0.0316 µM
[20] = second compound 1 µM, first compound 0.1 µM
[21] = second compound 1 µM, first compound 0.316 µM
[22] = second compound 1 µM, first compound 1 µM
[23] = second compound 1 µM, first compound 3.16 µM
[24] = second compound 1 µM, first compound 10 µM
[25] = second compound 3.16 µM, first compound 0.0316 µM
[26] = second compound 3.16 µM, first compound 0.1 µM
[27] = second compound 3.16 µM, first compound 0.316 µM
[28] = second compound 3.16 µM, first compound 1 µM
[29] = second compound 3.16 µM, first compound 3.16 µM
[30] = second compound 3.16 µM, first compound 10 µM
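Further: spheroids exposed to agents for seven days before reading.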
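Wherever viability, T/C is given: 100% = DMSO vehicle wells so lower means fewer viable cells.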

| Structure (SMILES) | IC50 (second compound 0.0316 µM) | IC50 (second compound 0.1 µM) | IC50 (second compound 0.316 µM) | IC50 (second compound 1 µM) | IC50 (second compound 3.16 µM) | viability, T/C [1] | viability, T/C [2] | viability, T/C [3] | viability, T/C [4] | viability, T/C [5] | viability, T/C [6] | viability, T/C [7] | viability, T/C [8] | viability, T/C [9] | viability, T/C [10] | viability, T/C [11] | viability, T/C [12] | viability, T/C [13] | viability, T/C [14] | viability, T/C [15] | also measured |
| --- | --- | --- | --- | --- | --- | --- | --- | --- | --- | --- | --- | --- | --- | --- | --- | --- | --- | --- | --- | --- | --- |
| COc1cc(Nc2ncc3c(n2)-c2ccc(Cl)cc2C(c2c(F)cccc2OC)=NC3)ccc1C(=O)O + C=CC(=O)N1CCN(c2nc(OCC3CCCN3C)nc3c2CCN(c2cccc4cccc(C)c24)C3)CC1CC#N | < 0.0316 µM | < 0.0316 µM | < 0.0316 µM | < 0.0316 µM | < 0.0316 µM | 13.7% | 11.9% | 11.5% | 9.41% | 11.3% | 10.4% | 12.7% | 11.3% | 10.2% | 9.02% | 12.1% | 10.4% | 10.2% | 8.78% | 8.53% | viability, T/C [16]: 8.2%; viability, T/C [17]: 9.27%; viability, T/C [18]: 9.77%; viability, T/C [19]: 10.3%; viability, T/C [20]: 8.65%; viability, T/C [21]: 7.42%; viability, T/C [22]: 6.83%; viability, T/C [23]: 7.63%; viability, T/C [24]: 6.7%; viability, T/C [25]: 2.49%; viability, T/C [26]: 2.27%; viability, T/C [27]: 1.67%; viability, T/C [28]: 0.13%; viability, T/C [29]: 0.95%; viability, T/C [30]: 0.23% |
| COc1cc2nccc(Oc3ccc(NC(=O)C4(C(=O)Nc5ccc(F)cc5)CC4)cc3)c2cc1OC + C=CC(=O)N1CCN(c2nc(OCC3CCCN3C)nc3c2CCN(c2cccc4cccc(C)c24)C3)CC1CC#N | 1.29 µM | < 0.0316 µM | < 0.0316 µM | < 0.0316 µM | < 0.0316 µM | 60.9% | 55.4% | 55.6% | 63.9% | 18.4% | 0.28% | 48.4% | 50% | 50.4% | 47.8% | 17.3% | 0.84% | 45% | 48.5% | 52.1% | viability, T/C [16]: 45%; viability, T/C [17]: 15%; viability, T/C [18]: 0.62%; viability, T/C [19]: 44.1%; viability, T/C [20]: 40.3%; viability, T/C [21]: 39.3%; viability, T/C [22]: 43.3%; viability, T/C [23]: 11.1%; viability, T/C [24]: 0.15%; viability, T/C [25]: 0.22%; viability, T/C [26]: 0.17%; viability, T/C [27]: 0.17%; viability, T/C [28]: 0.16%; viability, T/C [29]: 0.13%; viability, T/C [30]: 0.24% |
| O=C(c1cc(Cc2n[nH]c(=O)c3ccccc23)ccc1F)N1CCN(C(=O)C2CC2)CC1 + C=CC(=O)N1CCN(c2nc(OCC3CCCN3C)nc3c2CCN(c2cccc4cccc(C)c24)C3)CC1CC#N | 1.01 µM | 0.711 µM | 0.49 µM | 0.195 µM | < 0.0316 µM | 64.1% | 74.5% | 104% | 50.3% | 26.2% | 16.8% | 61.5% | 58.4% | 56.4% | 47.5% | 25.6% | 15.7% | 58.8% | 56.6% | 51.2% | viability, T/C [16]: 44.2%; viability, T/C [17]: 20.2%; viability, T/C [18]: 14.4%; viability, T/C [19]: 47.8%; viability, T/C [20]: 56.3%; viability, T/C [21]: 47.1%; viability, T/C [22]: 38.8%; viability, T/C [23]: 19.2%; viability, T/C [24]: 13.8%; viability, T/C [25]: 2.26%; viability, T/C [26]: 2.16%; viability, T/C [27]: 2.51%; viability, T/C [28]: 2.55%; viability, T/C [29]: 3.25%; viability, T/C [30]: 0.24% |
